The assay concerns infarct size after ischemia reperfusion (LAD ligation). In words: LAD ligation/reperfusion, infarct size as percent area at risk after CoQ10 pretreatment. The format is in vivo. The settings on record: WT mice; CoQ10 ip 1 mg/kg/day for 3 days prior to ischemia reperfusion; compared to WT controls; p=0.15. The procedure: FIG. 4 is a plot comparing infarct size as a percentage of AAR in WT and ApoAI-null mice given saline or Coenzyme Q10 daily for 3 days prior to ischemia induced by 30 minutes of LAD ligation and 3 hours of reperfusion (data represent mean±SD; n=4-6 per group; *p<0.0001 compared to strain-matched NT control).
All animal protocols were approved by the Animal Research Committee, and all animals were housed in the Association for Assessment and Accreditation of Laboratory Animal Care International-approved animal facility of the Cleveland Clinic. Anterior wall MI (AMT) was performed as recently described (Askari, A. T. et al., J. Exp. Med. 197:615-624, 2003). Briefly, AMI was induced in eight 20- to 25-g male littermate wild-type (C57BL/6J), ApoA1 heterozygote (ApoA1^+/−) or knockout (ApoA1^−/−) mice by ligation of the LAD 7-0 Prolene. Blanching and dysfunction of the anterior wall verified LAD ligation. After 30 minutes of LAD ligation, microsurgical scissors were used to cut the knot in the ligature at the level of the myocardium, and animals subsequently underwent reperfusion for 3 hours. […] Animals were kept on ventilator for the entire 3 hours of reperfusion and subsequently analyzed for area at risk and infarct size using 1% solution of 2,3,5-triphenyltetrazolium chloride (TTC) at 37° C. […]

The results in this text go back to US9739791B2, “Methods for predicting and treating myocardial damage” (THE CLEVELAND CLINIC FOUNDATION, priority 2010, dated 2017).

Structures are written as SMILES.

Take `COC1=C(OC)C(=O)C(C/C=C(\C)CC/C=C(\C)CC/C=C(\C)CC/C=C(\C)CC/C=C(\C)CC/C=C(\C)CC/C=C(\C)CC/C=C(\C)CC/C=C(\C)CCC=C(C)C)=C(C)C1=O` [CoQ10, Coenzyme Q10]: the “decrease in IS/% AAR” value is listed as “non-significant trend”.
